Experiments:
[1] = cited from earlier work
[2] = Thermogravimetric (TG) analysis, weight loss due to decomposition; assay type: physicochemical; conditions: heated at 10° C./min from 30 to 500° C., under nitrogen (80 mL/min)
Method: Thermogravimetric analyses were recorded in a Mettler Toledo SDTA851e. Samples of 3-4 mg were weighted into 40 μL aluminium crucibles with a pinhole lid, and heated at 10° C./min from 30 to 500° C., under nitrogen (80 mL/min).

| Compound | amount of ibuprofen that dissolves in 1 ml of water [1] | TG analysis: weight loss beginning due to decomposition (temperature) [2] |
| --- | --- | --- |
| CC(C)Cc1ccc(C(C)C(=O)O)cc1 (stereo not shown) [ibuprofen, 2-[4-(2-methylpropyl)phenyl]propanoic acid] | Less than 1 mg |  |
| CC(C)Cc1ccc([C@H](C)C(=O)O)cc1.COc1cccc([C@]2(O)CCCC[C@H]2CN(C)C)c1 [(−)-tramadol-(S)-ibuprofen salt, Phase 2, (−)-tramadol-(S)-ibuprofen Salt, Phase 2] |  | 130 °C |
| (+)-tramadol-(S)-ibuprofen salt |  | 130 °C |
| CC(C)Cc1ccc([C@H](C)C(=O)O)cc1.COc1cccc([C@]2(O)CCCC[C@H]2CN(C)C)c1 [(−)-tramadol-(S)-ibuprofen salt, Phase 1] |  | 140 °C |
